According to patent US20180071317A1, “USE OF AGENTS THAT ALTER THE PERITUMORAL ENVIRONMENT FOR THE TREATMENT OF CANCER” (SERVICIO ANDALUZ DE SALUD, priority 2011, published 2018):

Tests used:
[1] = system: fibroblasts (PHF) co-cultured with tumor cells of human Edwing sarcoma (MHH-ES-1); assay: Marker expression (IHC) in PHF co-cultured with MHH-ES-1 tumor cells; assay type: cell-based; settings: PHF co-cultured with MHH-ES-1 + SP + NK1 antagonist
Method: (§1) All cultures were maintained 48 hours, following which the same cells were included in paraffin blocks for subsequent analysis of the expression of different markers by immunohistochemistry (see Example 1). […] All experiments were carried out sixfold. Analyzed markers in fibroblast cells (stromal cells) were: TGF-α, TGF-β1, TGF-β2, TGF-β3, SPARC, MMP-3, MMP-7, MMP-9, MMP-11, MMP-13 and MMP-14.

mononuclear cells = assay: Marker expression (immunohistochemistry) in mononuclear blood cells with SP alone or with NK1 antagonists; assay type: cell-based, human; settings: SP 1 μM + antagonist 1 μM; 48 h
From the text: (§2) Briefly, heparinized blood from healthy donors was centrifuged so as to separate the various components thereof. Red blood cells remained at the bottom of the tube. Above them was a small white layer composed of the white blood cells and above, on top of the tube, the blood plasma. The layer of white cells was distributed in a culture plate of 24 wells by adding in each the same concentration of blood plasma from the same donor, supplemented with 1% antibiotic-antimycotic (Invitrogen). In each well, approximately 1000 cells (PHF) skin from the dermis were further added, obtained as previously described in Example 2. […] After 48 hours of incubation, cells were collected and embedded in paraffin for expression analysis by immunohistochemical techniques (as described in Example 1).
(§3) The expression of TGF molecular markers (anti-TGF 2, SAB4502956) and NF-kB (anti-NF-kB, SAB4501992) using specific antibodies against them were analyzed. All antibodies used were rabbit polyclonal antibodies obtained from Sigma Aldrich and were used at a concentration of 1/1000. All experiments were carried out sixfold.

[2] = system: fibroblasts (PHF) co-cultured with human neuroblastoma tumor cells (KELLY); assay: Marker expression (IHC) in PHF co-cultured with KELLY tumor cells; assay type: cell-based; settings: PHF co-cultured with KELLY + SP + NK1 antagonist;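 further: Co-cultures grown on healthy-donor human blood plasma, run in six replicates, value is percentage of fibroblasts positive for each marker, compared with fibroblasts cultured alone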
Method: as §1

[3] = system: macrophages in co-culture with cells isolated from primary human tumors; assay: Marker expression (IHC) in macrophages co-cultured with primary human tumor cells (colon, breast, ovarian, lung carcinoma, melanoma); assay type: cell-based; settings: SP 1 μM + antagonist 1 μM;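 further: macrophages came from pleural or peritoneal washings of the patient who also supplied the tumor cells, and both were co-cultured on fresh blood plasma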
Method: To check that the interaction of tumor cells obtained directly from primary human immune cell/inflammatory (macrophages) cells, obtained from the patient stimulate secretion of substances by these macrophages recognized as important in survival of both cell types and in the progression of tumor cells, co-cultures were performed on fresh blood plasma, immune cell/inflammatory (macrophages) with tumor cells derived from primary tumors. All obtained from the same patient, to build an experimental model similar to human physiology.
Macrophages were obtained from washing or pleural or peritoneal from the same patient from which the primary tumor cells were obtained in each case.

[4] = system: fibroblasts (PHF) co-cultured with tumor cells, ovarian carcinoma (EFO-27); assay: Marker expression (IHC) in PHF co-cultured with EFO-27 tumor cells; assay type: cell-based, human; settings: co-culture with EFO-27; SP 1 μM + antagonist 1 μM; 48 h;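 further: values are the percentage of PHF fibroblasts positive for each marker, cultured in fresh plasma from a healthy human donor, each experiment run in six replicates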
Method: as §1

[5] = system: fibroblasts (PHF) co-cultured with tumor cells of human colon adenocarcinoma (SW-403); assay: Marker expression (IHC) in PHF co-cultured with SW-403 tumor cells; assay type: cell-based; settings: co-culture with SW-403; SP 1 μM + antagonist 1 μM; 48 h
Method: (§4) All cultures were maintained 48 hours, following which the same cells were included in paraffin blocks for subsequent analysis of the expression of different markers by immunohistochemistry (see Example 1). The primary antibodies used to perform immunohistochemical assays and their concentration are detailed in Example 2. All experiments were carried out sixfold. Analyzed markers in fibroblast cells (stromal cells) were: TGF-α, TGF-β1, TGF-β2, TGF-β3, SPARC, MMP-3, MMP-7, MMP-9, MMP-11, MMP-13 and MMP-14.

[6] = system: human primary fibroblasts (PHF); assay: Marker expression (immunohistochemistry) in human primary fibroblasts with SP alone or with NK1 antagonists; assay type: cell-based; settings: SP 1 μM + antagonist 1 μM; 48 h;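 further: primary human dermal fibroblasts, immunostained with rabbit polyclonal antibodies against each marker, value is percentage of stained cells among all cells counted in 20 fields at 400× per section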
[7] = system: human primary macrophages (PHM); assay: Marker expression (immunohistochemistry) in human primary macrophages with SP alone or with NK1 antagonists; assay type: cell-based; settings: SP 1 μM + antagonist 1 μM; 48 h
Method: In this sense the next step was to analyze the effect exerted by the treatment with non-peptide NK1 antagonists in human primary macrophages (PHM) obtained and purified from pleural effusion samples obtained from men with chronic age range between 45 and 55 years. Briefly, the pleural fluid from chronic (rich in macrophages) was centrifuged.
After 48 hours of culture, cells were harvested and cellular paraffin blocks were constructed for immunohistochemical analysis (see Example 1). To analyze the expression of markers EGF, MMP-9, VEGF and IL-8 antibodies were used as follows: EGF (rabbit monoclonal antibody, anti-EGF; 07-1432. Merck-Millipore), MMP-9 (polyclonal rabbit anti-MMP-9: SAB4501896, Sigma-Aldrich), VEGF (mouse monoclonal anti-VEGF, GF25-100UG, Merck-Millipore) and TNF-α (mouse monoclonal anti-TNF-α, number MAB 1021 catalogue, obtained from Merck-Millipore). All of these antibodies were used at a concentration of 1/1000. System for labelling with a secondary antibody specific for the primary antibodies obtained from rabbit or mouse was used, as was necessary in each case, both the Envision (Dako). All experiments were carried out sixfold.

[8] = system: fibroblasts (PHF) co-cultured with human choriocarcinoma tumor cells (AC-1M32); assay: Marker expression (IHC) in PHF co-cultured with AC-1M32 tumor cells; assay type: cell-based; settings: co-culture with AC-1M32; SP 1 μM + antagonist 1 μM; 48 h;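 further: Read-out is the percentage of PHF fibroblasts positive for each marker, with cells grown in fresh healthy-donor blood plasma, six replicates, reference being fibroblasts cultured alone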
Method: as §1

[9] = system: fibroblasts (PHF) co-cultured with tumor cells in human prostate carcinoma (22Rv1); assay: Marker expression (IHC) in PHF co-cultured with 22Rv1 tumor cells; assay type: cell-based; settings: co-culture with 22Rv1; SP 1 μM + antagonist 1 μM; 48 h;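 further: cultures grown on fresh plasma from a healthy donor, each experiment run sixfold, values give the percentage of fibroblasts positive for the given marker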
Method: as §1

polymorphonuclear cells = assay: Marker expression (immunohistochemistry) in polymorphonuclear blood cells with SP alone or with NK1 antagonists; assay type: cell-based, human; settings: SP 1 μM + antagonist 1 μM; 48 h
From the text: as §2, §3

[10] = system: fibroblasts (PHF) co-cultured with tumor cells of human Burkitt lymphoma (CA-46); assay: Marker expression (IHC) in PHF co-cultured with CA-46 tumor cells; assay type: cell-based; settings: PHF co-cultured with CA-46 + SP + NK1 antagonist;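 further: percentage of PHF fibroblasts positive for each marker, cultures grown in fresh human plasma from a healthy donor, six replicates, compared with fibroblasts cultured alone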
Method: as §4

[11] = system: fibroblasts (PHF) co-cultured with tumor cells, thyroid carcinoma; assay: Marker expression (IHC) in PHF co-cultured with thyroid carcinoma tumor cells; assay type: cell-based, human; settings: co-culture with thyroid carcinoma cells; SP 1 μM + antagonist 1 μM; 48 h;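 further: grown in fresh plasma from a healthy human donor, read-out is percent of fibroblasts positive for each marker, compared with fibroblasts cultured alone, run in six replicates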
Method: as §1

[12] = system: fibroblasts (PHF) co-cultured with tumor cells, thyroid carcinoma (reference A-427); assay: as above; assay type: cell-based, human; settings: co-culture with thyroid carcinoma cells; SP 1 μM + antagonist 1 μM; 48 h
Method: as §1

[13] = co-culture with cells isolated from breast carcinoma
[14] = co-culture with cells isolated from colon carcinoma
[15] = co-culture with cells isolated from lung carcinoma
[16] = co-culture with cells isolated from melanoma
[17] = co-culture with cells isolated from ovarian carcinoma

Cc1cc(F)ccc1[C@H]1CNCCN1C(=O)N(C)[C@H](C)c1cc(C(F)(F)F)cc(C(F)(F)F)c1 [Vestipitant]
0%: cells expressing MMP-3 [1] | cells expressing MMP-7 [1] | cells expressing MMP-9 [1] | cells expressing MMP-11 [1] | cells expressing MMP-13 [1] | cells expressing MMP-14 [1] | cells expressing SPARC [1] | cells expressing TGF-α [1] | cells expressing TGF-β1 [1] | cells expressing TGF-β2 [1] | cells expressing TGF-β3 [1] | mononuclear cells expressing NF-kB (mononuclear cells) | mononuclear cells expressing TGF-β (mononuclear cells) | cells expressing MMP-3 [2] | cells expressing MMP-7 [2] | cells expressing MMP-9 [2] | cells expressing MMP-11 [2] | cells expressing MMP-13 [2] | cells expressing MMP-14 [2] | cells expressing SPARC [2] | cells expressing TGF-α [2] | cells expressing TGF-β1 [2] | cells expressing TGF-β2 [2] | cells expressing TGF-β3 [2] | Percentage of macrophages which expressed EGF [3, 13] | Percentage of macrophages which expressed MMP-9 [3, 13] | Percentage of macrophages which expressed VEGF [3, 13] | Percentage of macrophages which expressed EGF [3, 14] | Percentage of macrophages which expressed MMP-9 [3, 14] | Percentage of macrophages which expressed VEGF [3, 14] | Percentage of macrophages which expressed EGF [3, 15] | Percentage of macrophages which expressed MMP-9 [3, 15] | Percentage of macrophages which expressed VEGF [3, 15] | Percentage of macrophages which expressed EGF [3, 16] | Percentage of macrophages which expressed MMP-9 [3, 16] | Percentage of macrophages which expressed VEGF [3, 16] | Percentage of macrophages which expressed EGF [3, 17] | Percentage of macrophages which expressed MMP-9 [3, 17] | Percentage of macrophages which expressed VEGF [3, 17] | PHF cells expressing MMP-3 [4] | PHF cells expressing MMP-7 [4] | PHF cells expressing MMP-9 [4] | PHF cells expressing MMP-11 [4] | PHF cells expressing MMP-13 [4] | PHF cells expressing MMP-14 [4] | PHF cells expressing SPARC [4] | PHF cells expressing TGF-α [4] | PHF cells expressing TGF-β1 [4] | PHF cells expressing TGF-β2 [4] | PHF cells expressing TGF-β3 [4] | PHF cells expressing MMP-3 [5] | PHF cells expressing MMP-7 [5] | PHF cells expressing MMP-9 [5] | PHF cells expressing MMP-11 [5] | PHF cells expressing MMP-13 [5] | PHF cells expressing MMP-14 [5] | PHF cells expressing SPARC [5] | PHF cells expressing TGF-α [5] | PHF cells expressing TGF-β1 [5] | PHF cells expressing TGF-β2 [5] | PHF cells expressing TGF-β3 [5] | PHF cells expressing MMP-3 [6] | PHF cells expressing MMP-7 [6] | PHF cells expressing MMP-9 [6] | PHF cells expressing MMP-11 [6] | PHF cells expressing MMP-13 [6] | PHF cells expressing MMP-14 [6] | PHF cells expressing SPARC [6] | PHF cells expressing TGFα [6] | PHF cells expressing TGFβ 1 [6] | PHF cells expressing TGFβ 2 [6] | PHF cells expressing TGFβ 3 [6] | macrophages expressing EGF [7] | macrophages expressing MMP-9 [7] | macrophages expressing VEGF [7] | PHF cells expressing MMP-3 [8] | PHF cells expressing MMP-7 [8] | PHF cells expressing MMP-9 [8] | PHF cells expressing MMP-11 [8] | PHF cells expressing MMP-13 [8] | PHF cells expressing MMP-14 [8] | PHF cells expressing SPARC [8] | PHF cells expressing TGF-α [8] | PHF cells expressing TGF-β1 [8] | PHF cells expressing TGF-β2 [8] | PHF cells expressing TGF-β3 [8] | PHF cells expressing MMP-3 [9] | PHF cells expressing MMP-7 [9] | PHF cells expressing MMP-9 [9] | PHF cells expressing MMP-11 [9] | PHF cells expressing MMP-13 [9] | PHF cells expressing MMP-14 [9] | PHF cells expressing SPARC [9] | PHF cells expressing TGF-α [9] | PHF cells expressing TGF-β1 [9] | PHF cells expressing TGF-β2 [9] | PHF cells expressing TGF-β3 [9] | polymorphonuclear cells expressing NF-kB (polymorphonuclear cells) | polymorphonuclear cells expressing TGF-β (polymorphonuclear cells) | cells expressing MMP-3 [10] | cells expressing MMP-7 [10] | cells expressing MMP-9 [10] | cells expressing MMP-11 [10] | cells expressing MMP-13 [10] | cells expressing MMP-14 [10] | cells expressing SPARC [10] | cells expressing TGF-α [10] | cells expressing TGF-β1 [10] | cells expressing TGF-β2 [10] | cells expressing TGF-β3 [10] | PHF cells expressing MMP-11 [11] | PHF cells expressing MMP-3 [12] | PHF cells expressing MMP-7 [12] | PHF cells expressing MMP-9 [12] | PHF cells expressing MMP-13 [12] | PHF cells expressing MMP-14 [12] | PHF cells expressing SPARC [12] | PHF cells expressing TGF-α [12] | PHF cells expressing TGF-β1 [12] | PHF cells expressing TGF-β2 [12] | PHF cells expressing TGF-β3 [12]
